{"source": "patent US20140329692A1", "about": "“METHOD FOR MEASURING DNA METHYLATION PROFILES” (ALBERT EINSTEIN COLLEGE OF MEDICINE OF YESHIVA UNIVERSITY, priority 2013, published 2014)", "key": {"[1]": {"test_system": "promoter region of Oct4", "assay": "DNA methylation profile of the Oct4 promoter in 5-Aza-treated MEFs (bisulfite treatment, MDA amplification, nested PCR, Sanger sequencing)", "format": "cell-based, mouse", "conditions": "1 μM 5-Aza", "excerpt": "To definitively test the protocol, it was investigated whether it was capable of directly detecting epimutations, i.e., random changes in methylation status of single cytosines as a consequence of, for example, errors in de novo or maintenance methylation. While estimates of DNA methylation accuracy have been reported (13, 14), it has never been possible to directly determine such epimutations. To test if the method was able to detect single cell-specific epimutations, a time course experiment was performed in MEFs treated with 5-azacytidine (5-Aza). 5-Aza prevents methylation at CpG sites in newly synthesized DNA through covalent binding to Dnmt1 (15). […] Cultured cells were treated with 1 μM 5-Aza for 48 and 72 hours; ten single cells as well as 100-cell controls from each treatment group were subjected to lysis and bisulfite treatment followed by MDA amplification. Then the promoter region of Oct4 was tested and it was shown that a fully methylated pattern of CpG sites was present in the untreated single fibroblasts as well as in the 100-cell control (FIG. 1B, upper panel).\nIsolation of single mouse embryonic fibroblasts: Mouse embryonic fibroblasts (MEFs) were isolated from embryonic day 13.5 embryos of C57BL/6 mice as described (31). All cultures were maintained in a 3% O2 and 5% CO2 atmosphere. The solutions of 5-aza-2′-deoxycytidine (5-Aza; Sigma, St. Louis, Mo., USA) in culturing medium were prepared at the time of application and applied every 24 hours for 72 hours. After trypsinization, single MEFs were collected under an inverted microscope by hand-held capillaries, deposited in PCR tubes and immediately frozen on dry ice and stored at […] until needed or immediately bisulfite-converted.\nBisulfite conversion: The bisulfite conversion and recovery of DNA were performed using the EZ DNA Methylation-Direct Kit (Zymo Research, Orange, Calif.). Bisulfite conversion was performed according to the instructions of the supplier with some modifications. First the bisulfite solution was added to the single or 100 cells together with 2 ng of salmon sperm DNA or tRNA. […]"}, "[2]": {"test_system": "global methylation", "conditions": "5-Aza treatment; cited from earlier work"}}, "data": [{"molecule": "Nc1ncn([C@H]2C[C@H](O)[C@@H](CO)O2)c(=O)n1", "note": "[5-Aza, 5-aza-2′-deoxycytidine]", "values": [{"measurement": "demethylation of Oct4 promoter", "setting": "[1]; 48 hours, 100-cell sample", "value": "< 50", "unit": "%"}, {"measurement": "methylation status of Oct4 promoter CpG sites", "setting": "[1]; 48 hours, single fibroblasts", "value": "a mixed population was found comprising either methylated or unmethylated cytosines"}, {"measurement": "methylation status of Oct4 promoter CpG sites", "setting": "[1]; 72 hours, both single fibroblasts and 100-cell control sample", "value": "fully demethylated"}, {"measurement": "global methylation", "setting": "[2]", "value": "significant decrease in global methylation"}]}]}
